According to patent US20250339419A1, “METHODS OF TREATING OCULAR INFLAMMATORY DISEASES” (priority 2021, published 2025):
Values joined by “and” are separate entries in the source; they are usually repeats but may differ in a detail not shown here. Identical values can stand only once. “Also recorded” adds a separate entry of the source. Like-named read-outs stand apart in the source and are kept apart here.

Key:
[1] = Phase 1 double-masked multiple-dose plasma PK study of roflumilast topical ophthalmic suspension (0.3%); format: in vivo, human; details: for plasma profile, fluctuation between peak (Cmax) and trough (pre-dose): Day 8; for accumulation ratios (RAUC0-12): by Day 8, mean (SD)
Protocol: A pharmacokinetic (PK) study of a roflumilast topical ophthalmic suspension was conducted. Data at Day 1 (Example 15), Day 8 (Example 16), and comparative data (Example 17) is provided.
The study was a Phase 1, double-masked, multiple-dose study conducted in healthy volunteers. The multiple-dose study was conducted over a single dose level where participants were randomly assigned to receive a masked dose of roflumilast topical ophthalmic suspension eye drops (n=14) or vehicle only (n=2) as set forth in Table 7, administered as a single drop in each eye BID (twice daily, every 12 hours) for seven days, followed by a single morning dose on Day 8.
Blood samples were collected at multiple time points on Days 1, 2, 8, and 9. The following nominal blood sampling time points were used for the PK assessment of roflumilast topical ophthalmic suspension and its main active metabolite on days 1 and 8:
Roflumilast topical ophthalmic suspension and roflumilast n-oxide (metabolite) concentrations in plasma were evaluated using Phoenix™ WinNonlin® version and 8.4 (Pharsight Corporation, USA). For both analytes, the upper limit of quantification (ULOQ) was […] and the lower limit of quantification (LLOQ) was […].
Analysis Procedures: Actual collection times were used for PK parameter determinations, calculated with respect to the dose time. Time points preceding Cmax, the first measurable concentration that was BLOQ were set to zero for PK parameter determination. Where the final plasma concentration was BLOQ, the concentration at the preceding time point was deemed to be the last measurable concentration for calculation of λz. AUC parameters were determined by the linear-up, log-down trapezoidal rule. λz was determined by log-linear regression obtained on at least the 3 last quantifiable concentrations (not including Cmax); the default “best fit” method by Phoenix WinNonlin was used for the selection of slopes to determine λz. In addition, every PK profile was scrutinized visually and adjustments made to the slope selection, where necessary. The goodness of fit of the regression was evaluated using the square of the correlation coefficient (adjusted R2) which was required to be at least 0.8 for the λz l value to be considered reliable. Regression-based parameters (AUC0-inf, t1/2) were calculated if the adjusted R2 value of the regression line was greater than or equal to 0.8 and residual area <20%. The time point where the ln-linear λz calculation begins (Lower) and the actual sampling time of the last measurable concentration used to estimate the λz (λz Upper) as well as the R2-adjusted for the ln-linear regression for the calculation of the elimination rate constant were listed.

[2] = parameters: AUC 0-∞: unit not given beside the values; details: Observed PO (Day 1), single 500 μg dose; cited from earlier work
[3] = plasma, Day 8, mean (SD), topical ocular 0.3% BID 7 days + morning dose

With `O=C(Nc1c(Cl)c[n+]([O-])cc1Cl)c1ccc(OC(F)F)c(OCC2CC2)c1` [Roflumilast N-oxide, 3-cyclopropylmethoxy-4-difluoromethoxy-N-(3,5-dichloropyrid-4-yl 1-oxide)benzamide] the mean plasma profile ([1]; Day 1, FIGS. 14-17) was “increased over the 12 hours post-first dose”, the “plasma levels relative to roflumilast” value ([1]; Day 1, FIGS. 16-17) was “consistently higher than roflumilast after 2 hours” and the “plasma profile, fluctuation between peak (Cmax) and trough (pre-dose)” value [1] was “very stable, showing little fluctuation”. For the same compound, the “mean peak plasma profile relative to parent” value ([1]; Day 8, FIGS. 22-23) was “consistently higher than that of the parent”, the “PTF % (percent peak-to-trough fluctuation)” value ([1]; Day 8, mean (SD)) was 0.287 (0.223) % and the “RAUC0-12 (accumulation ratio)” value ([1]; Day 8, mean (SD)) was 9.25 (2.92). The accumulation ratios (RAUC0-12) [1] was 9.25, the C12 ([1]; plasma, Day 1, mean, 12 hr post-first dose) was 1.37 ng/mL and the AUC0-t ([1]; plasma, Day 1, mean, to 12 hr post-first dose) was 9.38 ng·h/mL. It also gave a Clast ([1]; plasma, Day 1, mean, to 24 hr post-first dose) of 3.49 ng/mL, a Cmax ([1]; plasma, Day 1, mean, 0.3% suspension 1 drop each eye BID) of 1.38 ng/mL and a Tmax ([1]; plasma, Day 1, median) of 11.83 h. For the same compound, the AUC0-t ([1]; plasma, Day 8, mean (SD)) was 156 (79.3) h*ng/mL, the AUC0-tau ([1]; plasma, Day 8, mean (SD)) was 78.4 (39.4) h*ng/mL and the AUC24 ([1]; plasma, Day 8, mean (SD)) was 149 (77.4)** h*ng/mL. For the same compound, the C12 trough ([1]; plasma, Day 8, mean (SD)) was 6.33 (3.35) ng/mL, the Cavg ([1]; plasma, Day 8, mean (SD)) was 6.53 (3.29) ng/mL and the Cmax [1, 3] was 7.93 (3.88) ng/mL. For the same compound, the Tmax ([1]; plasma, Day 8, median) was 1.00 h.
With `O=C(Nc1c(Cl)cncc1Cl)c1ccc(OC(F)F)c(OCC2CC2)c1` [Roflumilast, N-(3,5-dichloropyrid-4-yl)-3-cyclopropylmethoxy-4-difluoromethoxybenzamide] the “accumulation from the AM to the PM dose (C12 vs Clast)” value ([1]; Day 1) was ~2 fold, the “plasma profile, fluctuation between peak (Cmax) and trough (pre-dose)” value [1] was “very stable, showing little fluctuation” and the “PTF % (percent peak-to-trough fluctuation)” value ([1]; Day 8, mean (SD)) was 0.893 (0.446) %. For the same compound, the “RAUC0-12 (accumulation ratio)” value ([1]; Day 8, mean (SD)) was 2.63 (1.39), the “plasma concentrations, topical ocular route compared to oral (PO) administration” value ([1]; FIGS. 24-26) was “lower than those of PO-administered roflumilast; also recorded: significantly lower, producing a flatter concentration-time profile without a distinct Cmax peak” and the “AUC0-tau Geometric Mean Ratio (Day 8/Day 1) (90% CI)” value ([1]; Group 1) was 2.37 (1.90-2.94). For the same compound, the “C12 (trough) Difference in LS Means (Day 8 − Day 1) (90% CI)” value ([1]; Group 1) was 0.66 (0.45-0.86), the “C12 (trough) Geometric Mean Ratio (Day 8/Day 1) (90% CI)” value ([1]; Group 1) was 1.93 (1.57-2.37) and the “Cmax Geometric Mean Ratio (Day 8/Day 1) (90% CI)” value ([1]; Group 1) was 1.79 (1.41-2.27). The “C12 (trough) LS Means” value ([1]; Group 1, Day 1, n 14) was −1.44, the “C12 (trough) LS Means” value ([1]; Group 1, Day 8, n 14) was −0.78 and the accumulation ratios (RAUC0-12) [1] was 2.63. For the same compound, the AUC ([1]; human, plasma, other: topical ophthalmic eye drops, 0.3 % suspension, single drop in each eye BID, Group 1, Day 1, read-out: AUC0-tau Geometric Mean) was 2.91 ng·h/mL, the concentration at 12 h ([1]; human, plasma, other: topical ophthalmic eye drops, 0.3 % suspension, single drop in each eye BID, Group 1, Day 1, read-out: C12 (trough) Geometric Mean) was 0.24 ng/mL and the Cmax ([1]; human, plasma, other: topical ophthalmic eye drops, 0.3 % suspension, single drop in each eye BID, Group 1, Day 1, read-out: Cmax Geometric Mean) was 0.47 ng/mL. For the same compound, the AUC ([1]; human, plasma, other: topical ophthalmic eye drops, 0.3 % suspension, single drop in each eye BID, Group 1, Day 8, read-out: AUC0-tau Geometric Mean) was 6.88 ng·h/mL, the concentration at 12 h ([1]; human, plasma, other: topical ophthalmic eye drops, 0.3 % suspension, single drop in each eye BID, Group 1, Day 8, read-out: C12 (trough) Geometric Mean) was 0.46 ng/mL and the Cmax ([1]; human, plasma, other: topical ophthalmic eye drops, 0.3 % suspension, single drop in each eye BID, Group 1, Day 8, read-out: Cmax Geometric Mean) was 0.85 ng/mL. The concentration at 12 h ([1]; human, plasma, other: topical ophthalmic eye drops, 0.3 % suspension, single drop in each eye BID, plasma, Day 1, mean, 12 hr post-first dose, read-out: C12) was 0.29 ng/mL, the AUC0-t ([1]; human, plasma, other: topical ophthalmic eye drops, 0.3 % suspension, single drop in each eye BID, plasma, Day 1, mean, to 12 hr post-first dose, read-out: AUC0-t) was 3.6 ng·h/mL and the concentration at 24 h ([1]; human, plasma, other: topical ophthalmic eye drops, 0.3 % suspension, single drop in each eye BID, plasma, Day 1, mean, to 24 hr post-first dose, read-out: Clast) was 0.51 ng/mL. It also gave a Cmax ([1]; human, plasma, other: topical ophthalmic eye drops, 0.3 % suspension, single drop in each eye BID, plasma, Day 1, mean, 0.3% suspension 1 drop each eye BID, read-out: Cmax) of 0.59 ng/mL, a Tmax ([1]; human, plasma, other: topical ophthalmic eye drops, 0.3 % suspension, single drop in each eye BID, plasma, Day 1, median, read-out: Tmax) of 2 h and an AUC0-t ([1]; human, plasma, other: topical ophthalmic eye drops, 0.3 % suspension, single drop in each eye BID, plasma, Day 8, mean (SD), read-out: AUC0-t) of 12.8 ng·h/mL. The AUC ([1]; human, plasma, other: topical ophthalmic eye drops, 0.3 % suspension, single drop in each eye BID, plasma, Day 8, mean (SD), read-out: AUC0-tau) was 7.6 ng·h/mL, the AUC ([1]; human, plasma, other: topical ophthalmic eye drops, 0.3 % suspension, single drop in each eye BID, plasma, Day 8, mean (SD), read-out: AUC24) was 12.8 ng·h/mL and the concentration at 12 h ([1]; human, plasma, other: topical ophthalmic eye drops, 0.3 % suspension, single drop in each eye BID, plasma, Day 8, mean (SD), read-out: C12 trough) was 0.5 ng/mL. The Tmax ([1]; human, plasma, other: topical ophthalmic eye drops, 0.3 % suspension, single drop in each eye BID, plasma, Day 8, median, read-out: Tmax) was 1 h, the Cmax ([1]; human, plasma, topical or ocular, 0.3 % suspension, single drop in each eye BID, plasma, Day 8, mean (SD), topical ocular 0.3% BID 7 days + morning dose, read-out: Cmax) was 0.94 ng/mL and the Cavg ([1]; plasma, Day 8, mean (SD)) was 0.63 (0.30) ng/mL. The Cmax [1, 3] was 0.94 (0.46) ng/mL, the “AUC 0-∞” value [2] was 37.2 and 32.86 and the “Plasma Cmax” value [2] was 8.3 ng/mL.
